Measurements: patent publication US11903956B2, “Compositions and products for infectious or inflammatory diseases or conditions” (B&H BIOTECHNOLOGIES, LLC, priority 2013, dated 2024)

Columns and labels:
rhesus rotavirus (RRV) = test: Treatment of rotavirus infection of mouse pups with formulations; details: RRV-infected mouse pups
[1] = tested on: sucking piglets with yellow watery diarrhea or infective gastroenteritis; test: Treatment of piglet diarrhea at ages 1-5 days with formulations; type: in vivo
Description: Diarrhea is a common disorder with sucking or weaning piglets. Viral or bacterial infections are common causes of piglet diarrhea. Piglets with viral diarrhea usually have yellow watery stools and piglets with bacterial diarrhea usually have gray stools. Sometimes, yellow diarrhea is accompanied with vomiting showing the characteristic of infective gastroenteritis. Often, piglet diarrhea or infective gastroenteritis is caused by mixed infection of viruses and bacteria. Piglets younger than one week could have a serious viral diarrhea or infective gastroenteritis with high death rates from about 70% to over 90%.
The formulations of 1.2, 2.2, 3.2 and 4.2 as prepared above in 6.1 were used for the treatment of diarrhea piglets at ages 1-5 days. […] In addition, combination of formula 1.2 and Enrofloxacin was also used for the treatment of piglet diarrhea.
Seven groups of sucking piglets with yellow watery diarrhea or infective gastroenteritis at ages of 1-5 days were treated once per day via oral administration or muscular injection with: 1) 1 ml/kg of body weight of ORS alone (control group, n=50); 2) Enrofloxacin according to manufacture's instruction (antibiotic control, n=69); 3) 1 ml/kg of body weight of the formula-1.2 (n=49); 4) 1 ml/kg of body weight of the formula-2.2 (n=82); 5) 1 ml/kg of body weight of the formula-3.2 (n=55); 6) 1 ml/kg of body weight of the […]; and 7) 1 ml/kg of body weight of the formula-1.2 plus Enrofloxacin (n=32).

[2] = tested on: sucking or weaning piglets with various diarrheas or infective gastroenteritis; test: Treatment of piglet diarrhea at ages 5-40 days with formula-2.2; type: in vivo
Description: The formula-2.2 as prepared above in 6.1 was used for the treatment of diarrhea piglets at ages 5-40 days.
Two groups of sucking or weaning piglets with various diarrheas or infective gastroenteritis at ages of 5-40 days were treated once per day via oral administration with: 1) Enrofloxacin according to manufacture's instruction (antibiotic group, n=139); and 2) 1 ml/kg of body weight of the formula-2.2 (n=262).

[3] = tested on: influenza virus of A/PR/8/34(H1N1); type: in vivo, mouse
[4] = tested on: dogs suffered from acute diarrhea; test: Treatment of diarrhea of dogs with formula-2.2; type: in vivo
Description: Two groups of dogs suffered from acute diarrhea with the symptoms of vomiting, depression, dehydration, listlessness, an increased frequency of diarrhea were treated once per day via oral administration or intramuscular injection with: 1) Cephradine according to manufacture's instruction (antibiotic group, n=15); and 2) 1.5 ml/kg of body weight of the formula-2.2 (n=10). Eight out ten (8/10, 80%) of the dogs stopped diarrhea after one dose of the treatment with formula-2.2.

[5] = tested on: respiratory infections accompanied with the respiratory syndrome (asthma); test: Treatment of respiratory infections or disorders of piglets; type: in vivo
Description: The formulations of 1.2 and 3.2 as prepared above in 6.1 were used for the prevention and treatment of respiratory infections or disorders of piglets. The ORS alone and a commercially available antibiotic product, Timicosin were used as controls. In addition, combination of formula 3.2 and Timicosin was used for the treatment of respiratory infections or disorders of piglets.
Weaning piglets (10˜15 kg, aged 5-7 weeks) suffered from respiratory infections accompanied with the respiratory syndrome characterized by asthma-like symptoms (difficulty with breath). The sick piglets were treated separately once a day via oral administration or intramuscular injection with 1) Tilmicosin according to manufacture's instructions (n=39); 2) 1 ml/kg of body weight of the formula-3.2 (n=36); and 3) Tilmicosin and 1 ml/kg of body weight of the formula-3.2 (n=41).

[6] = tested on: dogs suffered from respiratory infections; test: Treatment of respiratory infections of dogs; type: in vivo
Description: The formula-3.2 as prepared above in 6.1 was used via oral administration for the prevention or treatment of respiratory infections or disorders of dogs.
Two groups of dogs suffered from respiratory infections with the symptoms of runny nose, coughing, chills, fever and weakness/fatigue (etc.) were treated once per day via oral administration or intramuscular injection with: 1) Tulathromycin according to manufacture's instruction (antibiotic group, n=6); 2) 1.5 ml/kg of body weight of the formula-3.2 (n =6); and 3) Tulathromycin and 1.5 ml/kg of body weight of the formula-3.2 (n=9).

In the case of `CCN1CCN(c2cc3c(cc2F)c(=O)c(C(=O)O)cn3C2CC2)CC1` [Enrofloxacin], the “OR(effect)” value (rhesus rotavirus (RRV)) is reported as 0.06, the “OR(risk) of death” value (rhesus rotavirus (RRV)) is reported as 0.76 and the duration of diarrhea (rhesus rotavirus (RRV)) is reported as 3 to 4 days. For the same compound, the “outcome in words (diarrhea severity, death rate, efficacy)” value (rhesus rotavirus (RRV)) was “serious”, the “Not effect (number of pups)” value (rhesus rotavirus (RRV); 50 μl oral once per day) was 48 and the “Effect (number of pups)” value (rhesus rotavirus (RRV); 50 μl oral once per day, […]) was 3. For the same compound, the “Death (number of pups)” value (rhesus rotavirus (RRV); kept 3 weeks) was 12, the “Death Rate(%)” value (rhesus rotavirus (RRV); kept 3 weeks) was 23.5% and the “Not died (number of pups)” value (rhesus rotavirus (RRV); kept 3 weeks) was 39. For the same compound, the “Rate(%) of effect” value (rhesus rotavirus (RRV); […]) was 5.88%, the “No death (number of piglets)” value ([1]; diarrhea piglets aged 1-5 days) was 21 and the “OR(risk) of death” value ([1]; diarrhea piglets aged 1-5 days) was 0.19. The “Rate (%) death rate” value ([1]; diarrhea piglets aged 1-5 days) was 69.6%, the “Death (number of piglets)” value ([1]; diarrhea piglets aged 1-5 days, once per day) was 48 and the “day after treatment at which majority of piglets stopped diarrhea” value ([1]; one dose treatment every day) was 4 to 5 days. The “day at which majority of piglets stopped diarrhea” value ([2]; after 4-5 dose treatment (one dose every day)) was 4 to 5 days, the “Later Rec (recovered after 48 hours), number of piglets” value ([2]; diarrhea piglets aged 5-40 days) was 136 and the “Early Rec (recovered within 48 hours), number of piglets” value ([2]; diarrhea piglets aged 5-40 days, oral once per day) was 3. For the same compound, the OR ([2]; early recovery) was 0.001 and the “Rate (%) of early recovery” value ([2]; recovered within 48 hours) was 2.16%.

`CCOC(=O)C1=C[C@@H](OC(CC)CC)[C@H](NC(C)=O)[C@@H](N)C1` [Tamiflu] was tested, and the “Odds Ratio of death” value ([3]; influenza infection of mice) was 0.36, the “Death (number of mice)” value ([3]; mouse, in vivo, ip) was 21 and the “Rate (%) death rate” value ([3]; mouse, in vivo, ip) was 70%.

For `CC1=C(C(=O)O)N2C(=O)[C@@H](NC(=O)[C@H](N)C3=CCC=CC3)[C@H]2SC1` [Cephradine], the “Later Rec (recovered after 24 hours), number of dogs” value ([4]; dogs with acute diarrhea) was 14, the “Early Rec (recovered within 24 hours), number of dogs” value ([4]; dogs with acute diarrhea, once per day) was 1 and the OR ([4]; early recovery) was 0.02. The “Rate (%) of early recovery” value ([4]; recovered within 24 hours) was 6.67%.

With `CC[C@H]1OC(=O)C[C@@H](O)[C@H](C)[C@@H](O[C@@H]2O[C@H](C)[C@@H](O)[C@H](N(C)C)[C@H]2O)[C@@H](CCN2C[C@H](C)C[C@H](C)C2)C[C@@H](C)C(=O)/C=C/C(C)=C/[C@@H]1CO[C@@H]1O[C@H](C)[C@@H](O)[C@@H](OC)[C@H]1OC` [Tilmicosin] the “doses needed for getting recovered” value ([5]; in vivo) was 4-5 doses, the “Odds Ratio of death” value ([5]; piglets with respiratory syndrome) was 3.63 and the “Rate (%) death” value ([5]; weaning piglets with respiratory syndrome (asthma)) was 28.2%. The “Death (number of piglets)” value ([5]; weaning piglets with respiratory syndrome (asthma), once a day) was 11.

In the case of `CCCNC[C@]1(O)[C@H](C)O[C@@H](O[C@H]2[C@H](C)[C@@H](O[C@@H]3O[C@H](C)C[C@H](N(C)C)[C@H]3O)[C@](C)(O)C[C@@H](C)CN[C@H](C)[C@@H](O)[C@](C)(O)[C@@H](CC)OC(=O)[C@@H]2C)C[C@@]1(C)OC` [Tulathromycin], the “doses needed for getting recovered” value ([6]; dog, in vivo) is reported as 4-7 doses, the “Later Rec, number of dogs” value ([6]; dogs with respiratory infections) is reported as 5 and the “Early Rec (recovered within 48-72 hours), number of dogs” value ([6]; dogs with respiratory infections, once per day) is reported as 1. The OR ([6]; early recovery) was 0.04 and the “Rate (%) of early recovery” value ([6]; recovered within 48-72 hours) was 16.7%.
